Experimental data published in patent US6797721B2, “Phorboxazole derivatives for treating cancer” (Parker Hughes Institute, priority 1999, dated 2004).

Assays:
[1] = system: NALM-6 B-lineage ALL cells; test: Clonogenic assay, NALM-6; assay type: cell-based, human; settings: 7 days
Experimental: (§1) The growth-inhibiting activity of the synthetic Phorboxazole A and the synthesized derivatives was tested in clonogenic assays. Cancer cells were treated with 1 nM, 10 nM, and 100 nM doses of synthetic Phorboxazole A or derivatives of phorboxazole A. Treated cells included U373 human glioblastoma cells, NALM-6, human B-lineage acute lymphoblastic leukemia cells, and BT-20 human breast cancer cells. The cancer cells were resuspended in clonogenic medium consisting of alpha-MEM supplemented with 0.9% methylcellulose, 30% fetal bovine serum, and 50 μM 2-mercaptoethanol. Cells were plated in duplicate Petri dishes at 100,000 cells/mL/dish and cultured in a humidified 5% CO2 incubator for 7 days. Cancer cell colonies were enumerated on a grid using an inverted phase microscope of high optical resolution. Results were expressed as % inhibition of clonogenic cells at a particular concentration of the test agent using the formula:
(§2) % Inhibition=(1−Mean # of colonies [Test]/Mean # of colonies [Control]×100.

[2] = system: BT-20 human breast cancer cells; test: Clonogenic assay, BT-20; assay type: cell-based; settings: 7 days
Experimental: as §1, §2

leukemia NALM-6 cells = test: Mitochondrial transmembrane potential assay (DiIC1(5) staining); assay type: cell-based, human; settings: 2.5 nM, 5 nM or 10 nM, 72 hours
Experimental: FIG. 2 are graphs showing the effect of synthetic phorboxazole A and phorboxazole A derivatives on the mitochondrial transmembrane potentials of leukemia NALM-6 cells.
Cells were incubated with 2.5 nM, 5 nM or 10 nM of phorboxazole A, 33-O-methyl-phorboxazole A or 45,46-dehydrobromo-phorboxazole A for 72 hours, stained with DiICl (5) to assess the mitochondrial membrane potential (Δψm) and then analyzed with a cell sorter equipped with a HeNe laser.

[3] = Homo sapiens, 168 h, 1 nM, read-out: Inhibition of clonogenic growth
[4] = Homo sapiens, 168 h, 10 nM, read-out: Inhibition of clonogenic growth
[5] = Homo sapiens, 168 h, 100 nM, read-out: Inhibition of clonogenic growth

Structure (SMILES): C=C1C[C@@H]2C[C@@H]3C[C@@H](O)C[C@@H](O3)c3coc(n3)/C=C/C[C@H]3O[C@@H](/C(C)=C/c4coc(C[C@]5(O)C[C@H](OC)C[C@H]([C@H](O)/C=C(C)/C=C/[C@@H](C/C=C/Br)OC)O5)n4)[C@H](C)[C@@H](OC(=O)/C=C\C[C@@H](C1)O2)[C@H]3C [Compound 1, Phorboxazole A]
- Mean Number Colonies/10^4 cells ([1]; 1 nM): 270
- Mean Number Colonies/10^4 cells ([1]; 10 nM): 0
- Mean Number Colonies/10^4 cells ([1]; 100 nM): 0
- inhibition at 0.001 µM [1, 3]: 86.8%
- inhibition at 0.01 µM [1, 4]: > 99.9%
- inhibition at 0.1 µM [1, 5]: > 99.9%
- Mean Number Colonies/10^4 cells ([2]; 1 nM): 1070
- Mean Number Colonies/10^4 cells ([2]; 10 nM): 0
- Mean Number Colonies/10^4 cells ([2]; 100 nM): 0
- inhibition at 0.001 µM [2, 3]: 29.8%
- inhibition at 0.01 µM [2, 4]: > 99.9%
- inhibition at 0.1 µM [2, 5]: > 99.9%
- Depolarized mitochondria (mitochondrial membrane potential) (leukemia NALM-6 cells): progressive increase in depolarized mitochondria
